Measured values: patent US5998580A, “Photosensitive caged macromolecules” (priority 1995, dated 1999)
Where no end group is shown, it is not given here. The star is where a group is joined. α‑carboxy 2‑nitrobenzyl = O=C(O)C(c1ccccc1[N+](=O)[O-])*

Assays:
[1] = test system: Smooth muscle myosin light chain kinase (MLCK); experiment: inhibition of smooth muscle myosin light chain kinase (MLCK) activity, 32P incorporation into light chain; assay type: biochemical; details: before photolysis; 100 nM calmodulin
Protocol: (§1) The standard photolysis protocol involves exposure of caged peptide (0.1 to 1 ml; 0.1 mM to 1 mM in 50 mM Tris pH 7.5) in a quartz cuvette (1 cm path length) to the beam of a continuous 75 watt Xenon arc lamp that is filtered through a 300-350 nm band pass filter (UG-11 filter). This standard in vitro photolysis protocol was carried out for 30 minutes at room temperature.
Smooth muscle myosin light chain kinase (MLCK) (0.5 μg/ml) was incubated with various concentrations of synthetic caged peptide (e.g., 1-CAG-RS-20 and 9-NPG-RS-20) in the presence of 100 nM calmodulin, 0.1 mM CaCl2, 100 mM KCL, 0.2 mg/ml myosin regulatory light chain, 1 mM MgCl2, and 30 mM Tris-HCL (pH 7.5) at 25° C. for 5 minutes. 1-CAG-RS-20 and 9-NPG-RS-20 were photolyzed using the standard photolysis protocol (see above) and the uncaged peptide was purified away from by-products and caged peptides prior to the enzymatic assay using reverse phase HPLC. The phosphorylation reaction was started by adding 50 μM ^32 P-ATP. The incorporation of ^32 P into the light chain was measured by scintillation counter and the inhibitory effect of the peptide on myosin light chain kinase was determined.

[2] = test system: single smooth muscle cells; experiment: calcium-dependent enhancement of calcium (inward) current after repetitive depolarization in single smooth muscle cells; assay type: cell-based; details: cell injected with peptide
Protocol: The in vivo effects of 1-CAG-RS-20 on calcium-dependent enhancement of calcium current in smooth muscle were evaluated according to the methods described by McCarron et al. (Nature 357: 74-77). Photolysis of 1-CAG-RS-20 was accomplished by selectively exposing cells to a beam of UV irradiation using a light source fitted with a controllable shutter. In addition, experiments were carried out by recording phase contrast images in the far red portion of the spectrum to monitor the effects of 1-CAG-RS-20 on the contractile responses of the cells to Ca^2+ influx resulting from depolarization. Data was analyzed according to the methods described in Itoh et al. (Nature 338: 164-167, 1989).
Shown in these panels (FIG. 3) are the inward currents resulting from depolarization both before and after the train of depolarizing pulses. The trace labelled #1 was obtained before the train and that after the train is labelled #2 (FIG. 3C).

[3] = test system: toad stomach smooth muscle cells; experiment: rate of shortening of single smooth muscle cells (calcium-mediated contraction); assay type: cell-based; details: 200 μM; after photolysis versus without photolysis (FIG. 5)
Protocol: The in vivo effects of 1-CAG-RS-20 (200 μM) on the rate of shortening of single smooth muscle cells both before and after UV exposure was performed essentially as described in Itoh et al. (Nature 338: 164-67, 1989). Images of the cells were recorded using phase contrast optics and measurements of cell length were carried out as described by Itoh et al., supra. An interactive computer analysis program was used to measure cell length at successive intervals after the onset of cell membrane depolarization and subsequent increase in cytoplasmic Ca^2+ concentration that normally triggers contraction.

[4] = target: T1, calmodulin (Homo sapiens, UniProt P0DP23); experiment: binding to calmodulin agarose column before and after photolysis
T1 construct: purchased Sigma Chemical Co
Protocol: The 1-CAG-RS-20 was evaluated for its ability to bind a calmodulin agarose column before and after photolysis. This experiment was carried out as follows. 5 mls of calmodulin agarose (Sigma Chemical Co.) was poured into a 1 cm×10 cm glass column and equilibrated with 50 mM Tris pH 7.5, 1 mM CaEGTA, pCa 4.5 (where pCa=-log free […]. 100 nmoles 1CAGRS-20 in 1 ml of the same solution was loaded onto the column and eluted with the same solution while 14×1.5 ml fractions were collected. The elutant was then changed to 50 mM Tris pH 7.5, 1 mM EGTA, pCa 9 and 14×1.5 ml additional fractions were collected. Each fraction was analyzed for peptide by UV absorbance at 272 nm. A second 100 nmole aliquot of 1-CAG-RS-20 was irradiated by the standard photolysis protocol (see below) and loaded onto the calmodulin agarose column after extensive washing and reequilibration in the original pCa 4.5 solution.
as §1

## 1-CAG-RS-20: RS-20 caged analog containing caged tyrosine (α-carboxy 2-nitrobenzyl) at position 5 (ARRKY(α‑carboxy 2‑nitrobenzyl)QKTGHAVRAIGRLSS)
[1]
  inhibition of MLCK activity: failed to significantly inhibit MLCK activity
[2]; following photolysis (FIG. 3D)
  enhancement of inward current following a train of depolarizing stimuli: blocked
[2]; prior to exposure to ultraviolet light (FIG. 3C)
  enhancement of inward current following a train of depolarizing stimuli: the inward current was enhanced
[3]
  rate of cell shortening: shortened more slowly
[4]; before photolysis, in the presence of Ca2+ (pCa 4.5), 100 nmoles loaded
  binding to calmodulin agarose column: does not bind appreciably
[4]; following photolysis, in the presence of Ca2+, binding reversed by EGTA
  binding to calmodulin agarose column: binds strongly
